Test results reported in patent US9822069B2, “Urea derivative or pharmacologically acceptable salt thereof” (KYORIN PHARMACEUTICAL CO. LTD., priority 2013, dated 2017).

What follows are molecules tested against T1, human FPRL1 (Homo sapiens, UniProt P25090) (assay: Measurement test of agonist activity on human FPRL1 (test of calcium mobilization in cell, HEK293 with human FPRL1 and Gα15 expression vectors)). Details: calcium mobilization in HEK293 cells with human FPRL1 and Gα15 expression vectors.
T1 construct: expressed in transfected cells; host or cells: HEK293 (JCRB9068, NIBIO), transient transfection with pCMV-script vectors using Lipofectamine 2000
T1 sequence (P25090 1-351): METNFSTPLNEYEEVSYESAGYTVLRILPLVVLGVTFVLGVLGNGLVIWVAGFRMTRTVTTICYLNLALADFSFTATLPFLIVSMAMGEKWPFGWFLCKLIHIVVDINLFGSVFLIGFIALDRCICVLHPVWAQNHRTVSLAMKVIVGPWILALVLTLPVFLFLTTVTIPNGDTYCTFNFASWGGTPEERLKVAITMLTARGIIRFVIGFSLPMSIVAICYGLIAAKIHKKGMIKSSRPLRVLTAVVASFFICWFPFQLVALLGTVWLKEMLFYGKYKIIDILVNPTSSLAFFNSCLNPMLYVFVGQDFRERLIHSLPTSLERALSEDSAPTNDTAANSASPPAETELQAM
Type: cell-based
Description: Measurement Test of Agonist Activity on Human FPRL1
(1-1) Construction of Human FPRL1 Expression Vector
Human FPRL (SEQ ID NO: 3) was amplified in a PCR reaction from cDNA derived from a monocytic leukemia cell line THP-1 (TIB-202, ATCC) as a template using a forward primer shown in SEQ ID NO: 1, a reverse primer shown in SEQ ID NO: 2, and KOD-plus-ver. 2 (KOD-211, TOYOBO CO., LTD.). The amplified PCR product and pCMV-script vector (212220, STRATAGENE) were digested with Hind III (1060A, Takara Bio Inc.) and XhoI (1094A, Takara Bio Inc.), and the resultant digest was ligated with Ligation high ver. 2 (LGK-201, TOYOBO CO., LTD.). The ligation product was transformed into DH5α (DNA-901, TOYOBO CO., LTD.), cultured on a 100 μg/mL kanamycin-containing LB medium, and purified with HiSpeed Plasmid Maxi Kit (12662, QIAGEN).
(1-2) Construction of Human Gα15 Expression Vector
Human Gα15 (SEQ ID NO: 6) was amplified in a PCR reaction from cDNA derived from a myeloid leukemia cell line HL-60 (CCL-240, ATCC) as a template using a forward primer shown in SEQ ID NO: 4, a reverse primer shown in SEQ ID NO: 5, and KOD-plus-ver. 2. The amplified PCR product and pCMV-script vector were digested with Hind III and XhoI, and the resultant digest was ligated with Ligation high ver. 2. The ligation product was transformed into DH5α, cultured on a 100 μg/mL kanamycin-containing LB medium, and purified with HiSpeed Plasmid Maxi Kit.
(2-1) Method for Culturing and Subculturing HEK293
HEK293 (JCRB9068, NIBIO) was cultured in an incubator at 5% CO2 and 37° C. using DMEM (11885-092, GIBCO) containing 10% FBS and 1× Penicillin-Streptomycin (15140-122, GIBCO). Subculture was carried out as followings: The cells that reached 80 to 90% confluency were washed with PBS(−), separated using 0.25% Trypsin-EDTA (25200-072, GIBCO), centrifuged, re-suspended in a fresh medium, and then seeded in Collagen Type 1 Coated dish (4020-010, IWAKI) at a split ratio of 1:8 (cultured for 3 days).
(2-2) Introduction of Human FPRL1 and Gα15 Expression Vectors
HEK293 that reached 80 to 90% confluency was washed with PBS(−), separated using 0.25% Trypsin-EDTA, centrifuged, and re-suspended in a fresh medium excluding 1× Penicillin-Streptomycin. The cells were inoculated in a Collagen Type 1 coated 6-well plate (4810-010, IWAKI) to 5×10^5 cells/2.5 mL/well and cultured overnight. On the next day, human FPRL1 and Gα15 expression vectors were introduced using Lipofectamine 2000 transfection reagent (11668-019, Life technologies). First, the human FPRL1 and Gα15 expression vectors were diluted with Opti-MEM I Reduced Serum Medium (31985-070, GIBCO) to 2 μg/250 μL/well and Lipofectamine 2000 transfection reagent was diluted with Opti-MEM I Reduced Serum Medium to be 4 μL/250 μL/well. The vectors and reagent were softly diffused, and incubated at room temperature for 5 minutes. The vector solution was mixed with Lipofectamine 2000 transfection reagent in equal amounts. In order to form a composite of the vectors and Lipofectamine 2000 transfection reagent, the mixture was incubated at room temperature for 20 minutes, and added at 500 μL/well to the medium of inoculated cells. The treated cells were cultured for 24 hours, inoculated in Poly-D-Lysine coated 96-well plate (356640, BD Biosciences) at a cell density of 7×10^4 cells/100 μL/well, and cultured for another 24 hours. The resultant cells were used in a measurement test of calcium mobilization in the cells.
(3) Evaluation of Agonist Activity on Human FPRL1 (Test of Calcium Mobilization in Cell)
An appropriate amount of each test compound was first weighed, and dissolved to 10^−2 M by addition of dimethyl sulfoxide (DMSO). […]

Row | Compound | EC50
1 | COc1cc(F)c([C@@H]2CN(C)C(=O)[C@H]2NC(=O)Nc2ccc(Cl)nc2)c(F)c1 (relative stereo) [Example 24-4, (−)-1-(6-chloropyridin-3-yl)-3-[(3S*,4R*)-4-(2,6-difluoro-4-methoxyphenyl)-1-methyl-2-oxopyrrolidin-3-yl]urea] | 0.81 nM
2 | COc1cc(F)c([C@@H]2CNC(=O)[C@H]2NC(=O)Nc2ccc(OC(F)(F)F)cc2)c(F)c1 (relative stereo) [Example 7-1, (−)-1-[(3S*,4R*)-4-(2,6-Difluoro-4-methoxyphenyl)-2-oxopyrrolidin-3-yl]-3-[4-(trifluoromethoxy)phenyl]urea] | 1.09 nM
3 | O=C(Nc1ccc(F)cc1)N[C@@H]1C(=O)NC[C@H]1c1c(F)cc(OC(F)F)cc1F (relative stereo) [Example 1-74, 1-{(3S*,4R*)-4-[4-(difluoromethoxy)-2,6-difluorophenyl]-2-oxopyrrolidin-3-yl}-3-(4-fluorophenyl)urea] | 1.8 nM
4 | NC(=O)c1cc(F)c([C@@H]2CNC(=O)[C@H]2NC(=O)Nc2ccc(F)cc2)c(F)c1 (single isomer, unassigned) [EXAMPLE 31-1, (−)-3,5-Difluoro-4-{(3R*,4S*)-4-[3-(4-fluorophenyl)ureido]-5-oxopyrrolidin-3-yl}benzamide] | 1.94 nM
5 | COc1cc(F)c([C@@H]2CNC(=O)[C@H]2NC(=O)Nc2ccc(C)s2)c(F)c1 (relative stereo) [Example 1-39, (−)-1-[(3S*,4R*)-4-(2,6-difluoro-4-methoxyphenyl)-2-oxopyrrolidin-3-yl]-3-(5-methylthiophen-2-yl)urea] | 3.51 nM
6 | N#CCN1C[C@@H](c2cc3c(cc2F)OCC3)[C@H](NC(=O)Nc2ccc(F)cc2)C1=O (single isomer, unassigned) [EXAMPLE 24-23, (−)-1-[(3S*,4R*)-1-(cyanomethyl)-4-(6-fluoro-2,3-dihydrobenzofuran-5-yl)-2-oxopyrrolidin-3-yl]-3-(4-fluorophenyl)urea] | 0.8 nM
7 | COc1ccc([C@H]2[C@H](NC(=O)Nc3ccc(F)cc3)C(=O)N[C@@H]2C)cc1 (relative stereo) [Example 1-41, (−)-1-(4-fluorophenyl)-3-[(3S*,4R*,5R*)-4-(4-methoxyphenyl)-5-methyl-2-oxopyrrolidin-3-yl]urea] | 0.73 nM
8 | CCOC(=O)CN1C[C@@H](c2cc3c(cc2F)OCC3)[C@H](NC(=O)Nc2ccc(F)cc2)C1=O (single isomer, unassigned) [EXAMPLE 24-20, (−)-2-{(3S*,4R*)-4-(6-fluoro-2,3-dihydrobenzofuran-5-yl)-3-[3-(4-fluorophenyl)ureido]-2-oxopyrrolidin-1-yl}acetic acid ethyl ester] | 0.15 nM
9 | COc1ccc([C@@H]2CN(CCO)C(=O)[C@H]2NC(=O)Nc2ccc(Cl)cc2)cc1 (single isomer, unassigned) [Example 15-1B, (+)-trans-1-(4-Chlorophenyl)-3-[1-(2-hydroxyethyl)-4-(4-methoxyphenyl)-2-oxopyrrolidin-3-yl]urea] | 1.99 nM
10 | COc1cc(F)c([C@@H]2CNC(=O)[C@H]2NC(=O)Nc2ccc(Cl)s2)c(F)c1 (relative stereo) [Example 8-1, (−)-1-(5-Chlorothiophen-2-yl)-3-[(3S*,4R*)-4-(2,6-difluoro-4-methoxyphenyl)-2-oxopyrrolidin-3-yl]urea] | 0.29 nM
11 | COc1cc(F)c([C@@H]2CNC(=O)[C@H]2NC(=O)Nc2ccc(Oc3ccccc3)cc2)c(F)c1 (relative stereo) [Example 7-7, (−)-1-[(3S*,4R*)-4-(2,6-difluoro-4-methoxyphenyl)-2-oxopyrrolidin-3-yl]-3-(4-phenoxyphenyl)urea] | 1.56 nM
12 | CCOC(=O)CC/N=C1\NC[C@@H](c2c(F)cc(OC)cc2F)[C@@H]1NC(=O)Nc1ccc(F)cc1 [EXAMPLE 32-20, 3-((Z)-{(3S,4R)-4-(2,6-difluoro-4-methoxyphenyl)-3-[3-(4-fluorophenyl)ureido]pyrrolidin-2-ylidene}amino) propanoic acid ethyl ester] | 2.86 nM
13 | COc1cc(F)c([C@@H]2CN/C(=N\N3CCOCC3)[C@H]2NC(=O)Nc2ccc(F)cc2)c(F)c1 (single isomer, unassigned) [EXAMPLE 32-17, (−)-1-[(3S*,4R*,Z)-4-(2,6-difluoro-4-methoxyphenyl)-2-(morpholinoimino)pyrrolidin-3-yl]-3-(4-fluorophenyl)urea] | 0.57 nM
14 | COc1cc(F)c([C@@H]2CN(CCO)C(=O)[C@H]2NC(=O)Nc2ccc(C)cc2)c(F)c1 (relative stereo) [Example 24-7, (−)-1-[(3S*,4R*)-4-(2,6-difluoro-4-methoxyphenyl)-1-(2-hydroxyethyl)-2-oxopyrrolidin-3-yl]-3-(p-tolyl)urea] | 0.69 nM
15 | COc1cc(F)c([C@@H]2CNC(=O)[C@H]2NC(=O)Nc2ccc(C#N)c(O)c2)c(F)c1 (relative stereo) [Example 1-73, 1-(4-cyano-3-hydroxyphenyl)-3-[(3S*,4R*)-4-(2,6-difluoro-4-methoxyphenyl)-2-oxopyrrolidin-3-yl]urea] | 1.2 nM
16 | COc1ccc([C@@H]2CN(C(C)C(=O)O)C(=O)[C@H]2NC(=O)Nc2ccc(F)cc2)cc1 (single isomer, unassigned; isomer a) [Example 18-1, (−)-2-{(3S*,4R*)-3-[3-(4-Fluorophenyl)ureido]-4-(4-methoxyphenyl)-2-oxopyrrolidin-1-yl}propionic acid (isomer A)] | 2.36 nM
17 | CNC(=O)CN1C[C@@H](c2c(F)cc(OC)cc2F)[C@H](NC(=O)Nc2ccc(F)cc2)C1=O (relative stereo) [Example 17-2, (−)-2-{(3S*,4R*)-4-(2,6-difluoro-4-methoxyphenyl)-3-[3-(4-fluorophenyl)ureido]-2-oxopyrrolidin-1-yl}-N-methylacetamide] | 0.07 nM
18 | CCOC(=O)CN1C[C@@H](c2c(F)cc(OC)cc2F)[C@H](NC(=O)Nc2ccc(F)cc2)C1=O (single isomer, unassigned) [EXAMPLE 24-16, (−)-2-{(3S*,4R*)-4-(2,6-difluoro-4-methoxyphenyl)-3-[3-(4-fluorophenyl)ureido]-2-oxopyrrolidin-1-yl}acetic acid ethyl ester] | 0.15 nM
19 | COc1cc(F)c([C@@H]2CNC(=O)[C@H]2NC(=O)Nc2cccc(O)c2)c(F)c1 (relative stereo) [Example 1-57, 1-[(3S*,4R*)-4-(2,6-difluoro-4-methoxyphenyl)-2-oxopyrrolidine-3-yl]-3-(3-hydroxyphenyl)urea] | 0.16 nM
20 | CO/N=C1\NC[C@@H](c2c(F)cc(OC)cc2F)[C@@H]1NC(=O)Nc1cc2ccccc2s1 (single isomer, unassigned) [EXAMPLE 32-11, (−)-1-(benzo[b]thiophen-2-yl)-3-[(3S*,4R*,Z)-4-(2,6-difluoro-4-methoxyphenyl)-2-(methoxyimino)pyrrolidin-3-yl]urea] | 0.88 nM
